{"source": "patent US20230131899A1", "about": "“INHIBITORS OF MICROBIALLY INDUCED AMYLOID” (Axial Therapeutics, Inc., priority 2020, published 2023)", "target": "T1, E. coli CsgA (Escherichia coli, UniProt P28307)", "T1 construct": "made in house; host or cells: E. coli NEB 3016 slyD::kan, pET11d", "T1 sequence (P28307 23-151)": "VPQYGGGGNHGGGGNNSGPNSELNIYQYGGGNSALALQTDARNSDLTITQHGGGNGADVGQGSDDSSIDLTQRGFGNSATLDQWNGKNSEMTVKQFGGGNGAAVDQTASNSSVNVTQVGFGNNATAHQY", "assay": "In vitro ThioflavinT assay of CsgA aggregation (CsgA ThT Assay)", "assay_type": "biochemical", "conditions": "for remaining activity at 25 µM: compound 25 μM; for remaining activity at 100 µM: compound 100 μM", "method": "In vitro ThioflavinT assay to determine effects of compounds on CsgA aggregation. To assess the effects of compounds on aggregation of E. coli CsgA, a cell-free assay was performed using purified CsgA and Thioflavin T. In the assay, histidine-tagged CsgA was over-expressed in E. coli NEB 3016 slyD::kan cells harboring a pET11d vector containing a C-terminal 6× His tag. Following growth in rich media, CsgA production is induced at an OD600 of approximately 1.0 by addition of 0.5 mM IPTG (isopropyl beta-D-1-thiogalactopyranoside) followed by incubation at 37° C. for 1-4 hours with shaking at 200-250 rpm. Bacteria were resuspended in 8 M guanidine hydrochloride in 50 mM potassium phosphate buffer, pH 7.3 and lysed by sonication on ice using three 20 second intervals. The resulting lysate was incubated on a platform rocker for 1 hour at room temperature. After centrifugation at 10,000×g for 20 minutes, the supernatant was further sonicated on ice for three 20 second intervals and then incubated with nickel-nitrilotriacetic acid resin (Sigma) at room temperature for 1 hour in a 50 mL conical tube on a platform rocker. The resin was washed and pelleted 5 times with 45 mL 8 M guanidine in 50 mM potassium phosphate buffer pH 7.3. The resin was further washed and pelleted two times with 8 M guanidine hydrochloride in 50 mM potassium phosphate buffer pH 7.3 containing 12.5 mM imidazole. Purified CsgA protein was eluted two times with 5 mL of 6-8 M guanidine hydrochloride in 50 mM potassium phosphate buffer, pH 7.3 containing 250 mM imidazole. The eluted protein was aliquoted with 150 μL per aliquot, snap frozen in liquid nitrogen, and stored at −80 C. In order to obtain monomeric CsgA, the purified CsgA protein was thawed and passed through two pre-chilled desalting columns (Zeba) to remove imidazole and guanidine. The buffer exchanged protein was loaded onto a 30-kDa centrifugal filter unit (Amicon) and spun for 30 minutes at 7500×g to remove dimers and other oligomers. Protein concentration was assessed by the NanoDrop technique (Thermo Scientific), as is familiar to one skilled in the art. The CsgA aggregation assay was conducted in 96-well black non-binding surface or white untreated microplates with 20-40 μM ThioflavinT, 50 mM potassium phosphate buffer pH 7.3, 1% DMSO, CsgA at 2-20 μM, and compounds at 3.125-200 uM. The vehicle control wells contain all components of the assay except test compounds and represent the level of CsgA aggregation in the absence of any inhibitor or accelerator. Plates were incubated at room temperature in a Tecan Nano F200 plate reader with excitation at 438 nm using a 439 nm filter with a bandwidth of 8 nm, and emission at 495 nm with a 490 nm filter with a bandwidth of 10 nm, or in a SpectraMax M5, SpectraMax M2 or SpectraMax® i3X (Molecular Devices, San Jose, Calif.) spectrophotometer with excitation at 438 nm and emission at 495 nm. During the assay, plates were shaken initially for 5 seconds and subsequently for 3 seconds prior to fluorescent readings. Readings were performed every 15 minutes for up to 1005 minutes. The effect of compounds on CsgA aggregation in the assay was determined with data from 0-17 hours. Fluorescence values for each compound with CsgA were first adjusted by subtracting the average fluorescence of the compound in the absence of CsgA or in the presence of CsgA and compound at time 0 or 15 minutes. The data were analyzed in several ways:\n1. The adjusted ThT fluorescence values were normalized by dividing them by the average fluorescence in the vehicle control wells containing CsgA. The median normalized fluorescence from 6-6.5 hours or 8-9 hours with the compound was expressed as a percentage of the median fluorescence observed in vehicle controls over the same time period. Percent inhibition of CsgA aggregation by a compound was determined by subtracting the percent average fluorescence with the compound relative to the vehicle controls from 100%. […]", "key": {"[1]": {"conditions": "read-out: CsgA ThT Assay (2 μM CsgA) % Control Bmax 25 μM, activity range, class symbol, CsgA 2 μM, white plates"}, "[2]": {"conditions": "read-out: CsgA ThT Assay (2 μM CsgA) % Control Bmax 25 μM, mean Bmax as percentage of DMSO control, CsgA 2 μM, white plates"}, "[3]": {"conditions": "read-out: CsgA ThT Assay (2 μM CsgA) % Control Bmax 100 μM, activity range, class symbol, CsgA 2 μM, white plates"}, "[4]": {"conditions": "read-out: CsgA ThT Assay (2 μM CsgA) % Control Bmax 100 μM, mean Bmax as percentage of DMSO control, CsgA 2 μM, white plates"}, "[5]": {"conditions": "read-out: CsgA ThT Assay (10 μM CsgA) % Control AUC at 1005 minutes, 25 μM (activity range), CsgA 10 μM, black plates, 1005 minutes, class symbol"}, "[6]": {"conditions": "read-out: CsgA ThT Assay (10 μM CsgA) % Control AUC at 1005 minutes, 25 μM, mean AUC as % of DMSO control, CsgA 10 μM, black plates, 1005 minutes"}, "[7]": {"conditions": "read-out: CsgA ThT Assay (10 μM CsgA) % Control AUC at 1005 minutes, 100 μM (activity range), CsgA 10 μM, black plates, 1005 minutes, class symbol"}, "[8]": {"conditions": "read-out: CsgA ThT Assay (10 μM CsgA) % Control AUC at 1005 minutes, 100 μM, mean AUC as % of DMSO control, CsgA 10 μM, black plates, 1005 minutes"}}, "note": "Like-named read-outs stand apart in the source and are kept apart here.", "data": [{"smiles": "O=C(O)C1CN(Cc2ccccc2)c2c(-c3cccc(C(F)(F)F)c3)c(CN3CCCCC3)c(Cl)c(=O)n21", "note": "(centres unmarked) [Compound 218, 1-benzyl-6-chloro-5-oxo-7-(piperidin-1-ylmethyl)-8-(3-(trifluoromethyl)phenyl)-1,2,3,5-tetrahydroimidazo[1,2-a]pyridine-3-carboxylic acid]", "values": [{"measurement": "remaining activity at 25 µM", "setting": "[1]", "value": "> 60", "unit": "%"}, {"measurement": "remaining activity at 25 µM", "setting": "[2]", "value": 115, "unit": "%"}, {"measurement": "remaining activity at 100 µM", "setting": "[3]", "value": "> 60", "unit": "%"}, {"measurement": "remaining activity at 100 µM", "setting": "[4]", "value": 109, "unit": "%"}]}, {"smiles": "O=C(O)[C@@H]1CNS(=O)(=O)c2c(-c3cccc(C(F)(F)F)c3)c(Cc3cccc4ccccc34)cc(=O)n21", "note": "(single isomer, unassigned) [Compound 009a]", "values": [{"measurement": "remaining activity at 25 µM", "setting": "[5]", "value": "31 to 60", "unit": "%"}, {"measurement": "remaining activity at 25 µM", "setting": "[6]", "value": 46, "unit": "%"}, {"measurement": "remaining activity at 100 µM", "setting": "[7]", "value": "11 to 31", "unit": "%"}, {"measurement": "remaining activity at 100 µM", "setting": "[8]", "value": 17, "unit": "%"}]}, {"smiles": "CCCN1CC(C(=O)O)n2c(c(-c3cccc(C(F)(F)F)c3)c(Cc3cccc4ccccc34)c(NC(C)C)c2=O)S1(=O)=O", "note": "(centres unmarked) [Compound 149, 7-(isopropylamino)-8-(naphthalen-1-ylmethyl)-6-oxo-2-propyl-9-(3-(trifluoromethyl)phenyl)-3,4-dihydro-2H,6H-pyrido[1,2-e][1,2,5]thiadiazine-4-carboxylic acid 1,1-dioxide]", "values": [{"measurement": "remaining activity at 25 µM", "setting": "[1]", "value": "> 60", "unit": "%"}, {"measurement": "remaining activity at 25 µM", "setting": "[2]", "value": 98, "unit": "%"}, {"measurement": "remaining activity at 100 µM", "setting": "[3]", "value": "> 60", "unit": "%"}, {"measurement": "remaining activity at 100 µM", "setting": "[4]", "value": 115, "unit": "%"}]}, {"smiles": "CCCOc1c(Cc2cccc3ccccc23)c(-c2cccc(C(F)(F)F)c2)c2n(c1=O)C(C(=O)O)CN(CCC)S2(=O)=O", "note": "(centres unmarked) [Compound 147, 8-(naphthalen-1-ylmethyl)-6-oxo-7-propoxy-2-propyl-9-(3-(trifluoromethyl)phenyl)-3,4-dihydro-2H,6H-pyrido[1,2-e][1,2,5]thiadiazine-4-carboxylic acid 1,1-dioxide]", "values": [{"measurement": "remaining activity at 25 µM", "setting": "[1]", "value": "> 60", "unit": "%"}, {"measurement": "remaining activity at 25 µM", "setting": "[2]", "value": 101, "unit": "%"}, {"measurement": "remaining activity at 100 µM", "setting": "[3]", "value": "> 60", "unit": "%"}, {"measurement": "remaining activity at 100 µM", "setting": "[4]", "value": 139, "unit": "%"}]}, {"smiles": "CCCN1CC(C(=O)O)n2c(c(-c3cccc(C(F)(F)F)c3)c(Cc3cccc4ccccc34)c(OC(C)C)c2=O)S1(=O)=O", "note": "(centres unmarked) [Compound 148, 7-isopropoxy-8-(naphthalen-1-ylmethyl)-6-oxo-2-propyl-9-(3-(trifluoromethyl)phenyl)-3,4-dihydro-2H,6H-pyrido[1,2-e][1,2,5]thiadiazine-4-carboxylic acid 1,1-dioxide]", "values": [{"measurement": "remaining activity at 25 µM", "setting": "[1]", "value": "> 60", "unit": "%"}, {"measurement": "remaining activity at 25 µM", "setting": "[2]", "value": 79, "unit": "%"}, {"measurement": "remaining activity at 100 µM", "setting": "[3]", "value": "> 60", "unit": "%"}, {"measurement": "remaining activity at 100 µM", "setting": "[4]", "value": 113, "unit": "%"}]}, {"smiles": "CCCN1CC(C(=O)O)n2c(c(-c3cccc(C(F)(F)F)c3)c(Cc3cccc4ccccc34)c(OCc3ccccc3)c2=O)S1(=O)=O", "note": "(centres unmarked) [Compound 146, 7-(benzyloxy)-8-(naphthalen-1-ylmethyl)-6-oxo-2-propyl-9-(3-(trifluoromethyl)phenyl)-3,4-dihydro-2H,6H-pyrido[1,2-e][1,2,5]thiadiazine-4-carboxylic acid 1,1-dioxide]", "values": [{"measurement": "remaining activity at 25 µM", "setting": "[1]", "value": "> 60", "unit": "%"}, {"measurement": "remaining activity at 25 µM", "setting": "[2]", "value": 113, "unit": "%"}, {"measurement": "remaining activity at 100 µM", "setting": "[3]", "value": "> 60", "unit": "%"}, {"measurement": "remaining activity at 100 µM", "setting": "[4]", "value": 63, "unit": "%"}]}, {"smiles": "O=C(O)C1CN(C(=O)OCc2ccccc2)c2c(-c3cccc(C(F)(F)F)c3)c(Cc3cccc4ccccc34)cc(=O)n21", "note": "(centres unmarked) [Compound 103, 1-((benzyloxy)carbonyl)-7-(naphthalen-1-ylmethyl)-5-oxo-8-(3-(trifluoromethyl)phenyl)-1,2,3,5-tetrahydroimidazo[1,2-a]pyridine-3-carboxylic acid]", "values": [{"measurement": "remaining activity at 25 µM", "setting": "[5]", "value": "> 60", "unit": "%"}, {"measurement": "remaining activity at 25 µM", "setting": "[6]", "value": 95, "unit": "%"}, {"measurement": "remaining activity at 100 µM", "setting": "[7]", "value": "> 60", "unit": "%"}, {"measurement": "remaining activity at 100 µM", "setting": "[8]", "value": 102, "unit": "%"}]}, {"smiles": "O=C(O)CCCCN1CC(C(=O)O)n2c(c(-c3cccc(C(F)(F)F)c3)c(Cc3cccc4ccccc34)cc2=O)S1(=O)=O", "note": "(centres unmarked) [Compound 039, 2-(4-carboxybutyl)-8-(naphthalen-1-ylmethyl)-6-oxo-9-(3-(trifluoromethyl)phenyl)-3,4-dihydro-2H,6H-pyrido[1,2-e][1,2,5]thiadiazine-4-carboxylic acid 1,1-dioxide]", "values": [{"measurement": "remaining activity at 25 µM", "setting": "[5]", "value": "> 60", "unit": "%"}, {"measurement": "remaining activity at 25 µM", "setting": "[6]", "value": 92, "unit": "%"}, {"measurement": "remaining activity at 100 µM", "setting": "[7]", "value": "11 to 31", "unit": "%"}, {"measurement": "remaining activity at 100 µM", "setting": "[8]", "value": 24, "unit": "%"}]}, {"smiles": "CCc1c(Cc2cccc3ccccc23)c(-c2cccc(C(F)(F)F)c2)c2n(c1=O)C(C(=O)O)CN(C)S2(=O)=O", "note": "(centres unmarked) [Compound 076, 7-ethyl-2-methyl-8-(naphthalen-1-ylmethyl)-6-oxo-9-(3-(trifluoromethyl)phenyl)-3,4-dihydro-2H,6H-pyrido[1,2-e][1,2,5]thiadiazine-4-carboxylic acid 1,1-dioxide]", "values": [{"measurement": "remaining activity at 25 µM", "setting": "[5]", "value": "11 to 31", "unit": "%"}, {"measurement": "remaining activity at 25 µM", "setting": "[6]", "value": 17, "unit": "%"}, {"measurement": "remaining activity at 100 µM", "setting": "[7]", "value": "11 to 31", "unit": "%"}, {"measurement": "remaining activity at 100 µM", "setting": "[8]", "value": 14, "unit": "%"}]}, {"smiles": "Cn1cc(C(=O)O)n2c(=O)cc(Cc3cccc4ccccc34)c(-c3cccc(C(F)(F)F)c3)c12", "note": "[Compound 111, 1-methyl-7-(naphthalen-1-ylmethyl)-5-oxo-8-(3-(trifluoromethyl)phenyl)-1,5-dihydroimidazo[1,2-a]pyridine-3-carboxylic acid]", "values": [{"measurement": "remaining activity at 25 µM", "setting": "[5]", "value": "> 60", "unit": "%"}, {"measurement": "remaining activity at 25 µM", "setting": "[6]", "value": 98, "unit": "%"}, {"measurement": "remaining activity at 100 µM", "setting": "[7]", "value": "> 60", "unit": "%"}, {"measurement": "remaining activity at 100 µM", "setting": "[8]", "value": 95, "unit": "%"}]}, {"smiles": "O=C(O)[C@H]1CNS(=O)(=O)c2c(-c3cccc(C(F)(F)F)c3)c(Cc3cccc4ccccc34)cc(=O)n21", "note": "(single isomer, unassigned) [Compound 009b]", "values": [{"measurement": "remaining activity at 25 µM", "setting": "[5]", "value": "> 60", "unit": "%"}, {"measurement": "remaining activity at 25 µM", "setting": "[6]", "value": 67, "unit": "%"}, {"measurement": "remaining activity at 100 µM", "setting": "[7]", "value": "31 to 60", "unit": "%"}, {"measurement": "remaining activity at 100 µM", "setting": "[8]", "value": 37, "unit": "%"}]}]}
